How the values were obtained:
[1] = xn = mol fraction of the nth substance listed; details: 101 kPa, Liquid, Vibrating tube method
[2] = refractive index (Na D-line) (dimensionless); xn = mol fraction of the nth substance listed; details: 101 kPa, Liquid, Standard Abbe refractometry

C1CCC(NC2CCCCC2)CC1 [N-cyclohexylcyclohexanamine] + CCCCO
Details | mass density, [1] [kg/m3] | refractive index, [2]
288.15 K, x2 = 0 | 915.498 | 1.48636
288.15 K, x2 = 0.0512 | 914.315 | 1.48502
288.15 K, x2 = 0.1 | 912.993 | 1.48368
288.15 K, x2 = 0.2005 | 909.753 | 1.48027
288.15 K, x2 = 0.3005 | 905.695 | 1.47614
288.15 K, x2 = 0.4005 | 900.544 | 1.47121
288.15 K, x2 = 0.5 | 893.978 | 1.46517
288.15 K, x2 = 0.6002 | 885.407 | 1.45768
288.15 K, x2 = 0.7002 | 874.118 | 1.44826
288.15 K, x2 = 0.7984 | 859.411 | 1.43656
288.15 K, x2 = 0.8999 | 839.302 | 1.42104
288.15 K, x2 = 0.9493 | 827.33 | 1.41197
293.15 K, x2 = 0 | 911.705 | 1.48416
293.15 K, x2 = 0.0512 | 910.505 | 1.4828
293.15 K, x2 = 0.1 | 909.162 | 1.48147
293.15 K, x2 = 0.2005 | 905.869 | 1.47804
293.15 K, x2 = 0.3005 | 901.749 | 1.4739
293.15 K, x2 = 0.4005 | 896.535 | 1.46892
293.15 K, x2 = 0.5 | 889.912 | 1.46289
293.15 K, x2 = 0.6002 | 881.306 | 1.45538
293.15 K, x2 = 0.7002 | 870.025 | 1.44587
293.15 K, x2 = 0.7984 | 855.383 | 1.43432
293.15 K, x2 = 0.8999 | 835.393 | 1.4189
293.15 K, x2 = 0.9493 | 823.486 | 1.40987
298.15 K, x2 = 0 | 907.923 | 1.48198
298.15 K, x2 = 0.0512 | 906.698 | 1.4806
298.15 K, x2 = 0.1 | 905.333 | 1.47926
298.15 K, x2 = 0.2005 | 901.986 | 1.47579
298.15 K, x2 = 0.3005 | 897.806 | 1.47165
298.15 K, x2 = 0.4005 | 892.53 | 1.46666
298.15 K, x2 = 0.5 | 885.853 | 1.46059
298.15 K, x2 = 0.6002 | 877.207 | 1.45309
298.15 K, x2 = 0.7002 | 865.925 | 1.44368
298.15 K, x2 = 0.7984 | 851.344 | 1.43208
298.15 K, x2 = 0.8999 | 831.466 | 1.41673
298.15 K, x2 = 0.9493 | 819.618 | 1.40779
303.15 K, x2 = 0 | 904.144 | 1.47978
303.15 K, x2 = 0.0512 | 902.899 | 1.47842
303.15 K, x2 = 0.1 | 901.51 | 1.47704
303.15 K, x2 = 0.2005 | 898.104 | 1.47358
303.15 K, x2 = 0.3005 | 893.865 | 1.46939
303.15 K, x2 = 0.4005 | 888.526 | 1.4644
303.15 K, x2 = 0.5 | 881.79 | 1.45831
303.15 K, x2 = 0.6002 | 873.106 | 1.4508
303.15 K, x2 = 0.7002 | 861.822 | 1.44139
303.15 K, x2 = 0.7984 | 847.289 | 1.42985
303.15 K, x2 = 0.8999 | 827.516 | 1.4146
303.15 K, x2 = 0.9493 | 815.728 | 1.40565
308.15 K, x2 = 0 | 900.372 | 1.47761
308.15 K, x2 = 0.0512 | 899.101 | 1.47623
308.15 K, x2 = 0.1 | 897.686 | 1.47485
308.15 K, x2 = 0.2005 | 894.222 | 1.47136
308.15 K, x2 = 0.3005 | 889.919 | 1.46716
308.15 K, x2 = 0.4005 | 884.519 | 1.46213
308.15 K, x2 = 0.5 | 877.726 | 1.45604
308.15 K, x2 = 0.6002 | 868.997 | 1.44852
308.15 K, x2 = 0.7002 | 857.708 | 1.43914
308.15 K, x2 = 0.7984 | 843.219 | 1.42763
308.15 K, x2 = 0.8999 | 823.538 | 1.41241
308.15 K, x2 = 0.9493 | 811.807 | 1.40352
313.15 K, x2 = 0 | 896.608 | 1.47562
313.15 K, x2 = 0.0512 | 895.307 | 1.47419
313.15 K, x2 = 0.1 | 893.863 | 1.47267
313.15 K, x2 = 0.2005 | 890.338 | 1.4691
313.15 K, x2 = 0.3005 | 885.971 | 1.46487
313.15 K, x2 = 0.4005 | 880.507 | 1.45979
313.15 K, x2 = 0.5 | 873.654 | 1.45368
313.15 K, x2 = 0.6002 | 864.881 | 1.44613
313.15 K, x2 = 0.7002 | 853.579 | 1.43676
313.15 K, x2 = 0.7984 | 839.126 | 1.42522
313.15 K, x2 = 0.8999 | 819.533 | 1.41016
313.15 K, x2 = 0.9493 | 807.851 | 1.40134
318.15 K, x2 = 0 | 892.847 | 1.47347
318.15 K, x2 = 0.0512 | 891.512 | 1.472
318.15 K, x2 = 0.1 | 890.04 | 1.47049
318.15 K, x2 = 0.2005 | 886.452 | 1.46689
318.15 K, x2 = 0.3005 | 882.018 | 1.46265
318.15 K, x2 = 0.4005 | 876.487 | 1.45753
318.15 K, x2 = 0.5 | 869.572 | 1.4514
318.15 K, x2 = 0.6002 | 860.75 | 1.44384
318.15 K, x2 = 0.7002 | 849.434 | 1.43447
318.15 K, x2 = 0.7984 | 835.005 | 1.42299
318.15 K, x2 = 0.8999 | 815.488 | 1.40798
318.15 K, x2 = 0.9493 | 803.854 | 1.39919
323.15 K, x2 = 0 | 889.089 | 1.47134
323.15 K, x2 = 0.0512 | 887.718 | 1.46985
323.15 K, x2 = 0.1 | 886.213 | 1.46835
323.15 K, x2 = 0.2005 | 882.559 | 1.46474
323.15 K, x2 = 0.3005 | 878.053 | 1.46049
323.15 K, x2 = 0.4005 | 872.455 | 1.45537
323.15 K, x2 = 0.5 | 865.476 | 1.4492
323.15 K, x2 = 0.6002 | 856.603 | 1.44162
323.15 K, x2 = 0.7002 | 845.267 | 1.43225
323.15 K, x2 = 0.7984 | 830.854 | 1.42074
323.15 K, x2 = 0.8999 | 811.404 | 1.40571
323.15 K, x2 = 0.9493 | 799.814 | 1.39701
